25 molecules from ChEMBL document CHEMBL1123383, “Multisubstrate inhibitors of dopamine beta-hydroxylase. 1. Some 1-phenyl and 1-phenyl-bridged derivatives of imidazole-2-thione” (J Med Chem, 1986) can be followed below.

The target in experiment [1] is T1, Dopamine beta-hydroxylase (Bos taurus, UniProt P15101).
T1 sequence (P15101 whole entry): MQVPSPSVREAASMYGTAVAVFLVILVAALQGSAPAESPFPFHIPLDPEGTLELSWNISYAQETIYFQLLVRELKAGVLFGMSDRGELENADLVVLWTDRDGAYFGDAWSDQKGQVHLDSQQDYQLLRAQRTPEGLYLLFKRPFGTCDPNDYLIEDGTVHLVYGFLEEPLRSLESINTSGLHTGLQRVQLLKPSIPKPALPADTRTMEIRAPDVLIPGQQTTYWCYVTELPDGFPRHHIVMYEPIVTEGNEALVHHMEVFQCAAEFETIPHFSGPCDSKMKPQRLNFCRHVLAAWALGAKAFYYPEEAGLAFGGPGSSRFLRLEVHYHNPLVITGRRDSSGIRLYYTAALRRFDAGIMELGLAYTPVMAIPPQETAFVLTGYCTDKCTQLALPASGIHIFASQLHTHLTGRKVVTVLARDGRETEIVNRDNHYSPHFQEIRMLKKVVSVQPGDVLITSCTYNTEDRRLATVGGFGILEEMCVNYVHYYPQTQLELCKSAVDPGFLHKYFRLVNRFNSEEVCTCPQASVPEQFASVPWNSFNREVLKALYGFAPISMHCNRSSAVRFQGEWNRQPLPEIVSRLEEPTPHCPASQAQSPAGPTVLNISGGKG
Briefly: Inhibition of Dopamine beta hydroxylase.

Experiment [2] deals with T2, Dopamine beta-hydroxylase (Bos taurus) (UniProt P15101).
T2 sequence (whole entry): T1 sequence (P15101 whole entry)
Briefly: Compound was evaluated for the inhibition of Dopamine beta hydroxylase at a concentration of 10e-4 M.

Experiment [3] concerns the target T2, Dopamine beta-hydroxylase (Bos taurus). Briefly: Inhibition of Dopamine beta hydroxylase at a concentration of 10e-4 M.
For experiment [4], the target named is T1, Dopamine beta-hydroxylase. In words: Compound was evaluated for the inhibition of Dopamine beta hydroxylase at pH 4.5.
Experiment [5] deals with T1, Dopamine beta-hydroxylase. In words: Compound was evaluated for the inhibition of Dopamine beta hydroxylase at pH 6.6.

With `Sc1nccn1CCCc1ccccc1`, the IC50 (in general, the midpoint of a concentration-inhibition curve) in experiment [1] came out at 16 µM.
With `Oc1ccc(CCCCCn2ccnc2S)cc1`, the inhibition (in general, the drop in the measured response relative to a control, in per cent) in experiment [2] came to 30%.
In the case of `COc1ccc(CCCn2cc[nH]c2=S)cc1`, the midpoint of inhibition in experiment [1], the IC50, lay at 180 µM.
Same read-out and setting: next, `Oc1ccc(CCn2cc[nH]c2=S)cc1`: 23 µM.
For the molecule `S=c1[nH]ccn1CCSc1ccccc1`, it took 103 µM to reach half-maximal inhibition in experiment [1] (IC50).
Still for that read-out and setting: with `Sc1nccn1-c1ccccc1` the figure was 110 µM.
For `NC(=O)C(c1ccccc1)n1ccnc1S` (configuration not stated), the inhibition in experiment [3] came to 4%.
As for `Oc1ccc(-n2ccnc2S)cc1`, the IC50 in experiment [1] came out at 370 µM.
Same read-out and setting: with `CC(CCn1cc[nH]c1=S)c1ccccc1` (configuration not stated) the figure was 18 µM.
`S=c1[nH]ccn1Cc1ccccc1` came in with a half-inhibitory concentration (IC50) in experiment [1] of 32 µM.
The molecule `CC(CCc1ccccc1)n1ccnc1S` (configuration not stated) gave an IC50 in experiment [1] of 325 µM.
Still for that read-out and setting: next, `COc1ccc(CCCCCn2cc[nH]c2=S)cc1`: 109 µM; `COc1ccc(Cn2cc[nH]c2=S)cc1`: 202 µM; `Oc1ccc(CCCn2cc[nH]c2=S)cc1`: 2.2 µM.
On the same count and under the same terms, with `CC(Cc1ccccc1)Cn1cc[nH]c1=S` (configuration not stated) the figure was 29 µM; with `Oc1ccc(Cn2cc[nH]c2=S)cc1`, 2.6 µM.
In experiment [3], `OC(Cc1ccccc1)Cn1ccnc1S` (configuration not stated) registered an inhibition of 5%.
The same measure, in the same setting: next, `Oc1ccc(CCCCn2ccnc2S)cc1`: 12%; `COc1ccc(-n2ccnc2S)cc1`: 25%.
With `Cn1cc[nH]c1=S` [METHIMAZOLE], in experiment [1], inhibition was half-maximal at 754 µM (IC50). The Ki (commonly a measure of affinity in units of concentration, obtained from inhibition or displacement) in experiment [4] turned out to be 45 µM; in experiment [5], 716 µM.
`NCC(c1ccccc1)n1ccnc1S` (configuration not stated): the inhibition in experiment [3] was 0%.
The same measure, in the same setting: next, `O=S(=O)(CCn1ccnc1S)c1ccccc1`: 5%.
The molecule `COc1ccc(CCn2ccnc2S)cc1` yielded an IC50 in experiment [1] of 68 µM.
Same read-out and setting: with `COc1ccc(CCCCn2cc[nH]c2=S)cc1` the figure was 152 µM; with `S=c1[nH]ccn1CCOc1ccccc1`, 87 µM.
